{"source": "PubChem BioAssay AID2060347", "about": "(Molecular Pharmacology Branch, DTP, NCI, 2025)", "system": "817829-284-R-J1-PDC spheroids with HUVEC/MSC, viability", "assay": "Anticancer human tumor 817829-284-R-J1-PDC patient-derived colon adenocarcinoma cell line growth inhibition [TAK]", "settings": "for viability, T/C: stronger effect = lower value", "text": "Combinatorial screen of targeted agents with TAK-243 and ipatasertib in multi-cell type tumor spheroids\nA high-throughput screen of multi-cell type tumor spheroids was designed to identify active combinations of targeted small molecules and TAK-243 or ipatasertib. Complex spheroids include a stromal component modeled by human endothelial cells (HUVEC) and fibroblasts modeled by human mesenchymal stem cells (MSCs). The concentration ranges selected for each drug and investigational agent were based upon clinically achievable concentrations if the clinical Cmax of the agent was known.\nCompounds. The drugs and investigational agents: TAK-243 (785004), ipatasertib (767898), everolimus (733504), selumetinib (741078), bortezomib (756655), trametinib (758246), ixazomib (758254), vemurafenib (761431), dabrafenib (764134), sapanisertib (764658), alpelisib (765974), and copanlisib (816437), were obtained from the National Cancer Institute (NCI) Developmental Therapeutics Program Chemical Repository. The FDA-approved anticancer drug set is available from the NCI Developmental Therapeutics Program. […] The stock solutions were prepared in dimethyl sulfoxide (DMSO, Sigma-Aldrich, St. Louis, MO, cat. D2650) at 800-fold the tested concentration and stored at -70 degrees C prior to their use. All drugs and investigational agents were tested over a range starting from a high concentration at or near the clinical Cmax and decreasing in half-log increments. If the clinical Cmax for an agent had not been determined, the highest concentration tested was 10 microM.\nNCI60 Cell Culture. NCI60 cell lines were obtained from the NCI Developmental Therapeutics Program Tumor Repository. For each lot of cells, the Repository performed Applied Biosystems AmpFLSTR Identifiler testing with PCR amplification to confirm consistency with the published Identifier STR profile for each cell line. Cells were kept in continuous culture for no more than 20 passages. The optimal seeding densities for each of the cell lines at each time point assessed were determined prior to performing the concentration response studies. Briefly, the NCI60 human tumor lines were grown as monolayers in RPMI 1640 medium supplemented with 10% FBS and 2 mmol/L L-glutamine.\nAn additional 2 lines were from the NCI60 cell line panel including melanomas, MALME-3M and SK-MEL-2. Pooled donor human umbilical vein endothelial cells (HUVEC, Lonza, cat. CC-2519) and human mesenchymal stem cells (hMSC, Lonza, cat. PT-2501) were purchased from Lonza (Walkersville, MD).\nPDMR cell lines were grown in complete medium (DC medium): Dulbecco's modified Eagle's medium (DMEM)/F12 supplemented with 5% fetal bovine serum (FBS), 2 mM L-glutamine, 100 U/mL penicillin and 100 µg/ml streptomycin, 0.4 µg/ml hydrocortisone, 10 ng/ml epidermal growth factor (EGF) recombinant human protein, 24 µg/mL adenine, and 0.1 mg/mL primocin. During culture from frozen stock vials, PDMR cells were cultured in the same medium containing 10 µM Y-27632 (see Table 3). The PDCs were cultured in complete DMEM/F12 media without 10 microM Y-27632 dihydrochloride for at least two passages prior to the screen. The pooled donor HUVEC and hMSC were cultured in endothelial cell growth medium 2 (PromoCell, Heidelberg, Germany, cat. C-22011) and mesenchymal stem cell growth medium 2 (PromoCell, cat. C-28009), respectively. For all experiments, HUVEC and hMSC were used at passages </=5.\nFor the pre-screen, cell seeding densities were determined from a titration spanning the range from 5,000 to 313 cells per well. The mct-spheroids including 60% malignant cells, 25% HUVEC and 15% MSC dispensed as a mixture into U-bottom Ultra-Low Attachment 384-well plates (Corning, NY)\nHigh-throughput Drug Combination Screening.\nPrior to their inoculation into 384-well plates, malignant cells, HUVEC, and hMSC were removed from T flasks using TrypLE express (Thermo Fisher Scientific, cat. 12605036) and harvested by centrifugation for 5 min at 233 x g. […]", "note": "Where “and” joins values, the source holds several entries; their conditions need not be identical. Equal values may be shown once."}
{"smiles": "COC1CC2CCC(C)C(O)(O2)C(=O)C(=O)N2CCCCC2C(=O)OC(C(C)CC2CCC(OCCO)C(OC)C2)CC(=O)C(C)C=C(C)C(O)C(OC)C(=O)C(C)CC(C)C=CC=CC=C1C", "note": "(centres undefined)", "values": [{"measurement": "viability, T/C", "setting": "compound 0.000316 µM", "result": "104% and 110%"}, {"measurement": "viability, T/C", "setting": "compound 0.001 µM", "result": "99.8% and 102%"}, {"measurement": "viability, T/C", "setting": "compound 0.00316 µM", "result": "94% and 99.6%"}, {"measurement": "viability, T/C", "setting": "compound 0.01 µM", "result": "81% and 86.2%"}, {"measurement": "viability, T/C", "setting": "compound 0.0316 µM", "result": "79.2% and 82.3%"}, {"measurement": "viability, T/C", "setting": "compound 0.1 µM", "result": "63.9% and 75%"}, {"measurement": "IC50", "setting": "curve of compound", "result": "> 100", "unit": "nM"}]}
{"smiles": "COc1c(OCCCN2CCOCC2)ccc2c3n(c(=NC(=O)c4cnc(N)nc4)nc12)CCN3", "values": [{"measurement": "viability, T/C", "setting": "compound 0.00316 µM", "result": "104% and 105%"}, {"measurement": "viability, T/C", "setting": "compound 0.01 µM", "result": "90.7% and 96.1%"}, {"measurement": "viability, T/C", "setting": "compound 0.0316 µM", "result": "63.8% and 44.4%"}, {"measurement": "viability, T/C", "setting": "compound 0.1 µM", "result": "18.7% and 13.9%"}, {"measurement": "viability, T/C", "setting": "compound 0.316 µM", "result": "3.92% and 2.94%"}, {"measurement": "viability, T/C", "setting": "compound 1 µM", "result": "2.85% and 3.44%"}, {"measurement": "IC50", "setting": "curve of compound", "result": "44 nM and 28.7 nM"}]}
{"smiles": "COc1c(OCCCN2CCOCC2)ccc2c3n(c(=NC(=O)c4cnc(N)nc4)nc12)CCN3", "note": "+ CC(C)NCC(C(=O)N1CCN(c2ncnc3c2C(C)CC3O)CC1)c1ccc(Cl)cc1", "values": [{"measurement": "IC50", "setting": "curve of first compound, second compound 0.3 µM", "result": 8.27, "unit": "nM"}, {"measurement": "IC50", "setting": "curve of first compound, second compound 0.949 µM", "result": "< 3.16", "unit": "nM"}, {"measurement": "IC50", "setting": "curve of first compound, second compound 3 µM", "result": "< 3.16", "unit": "nM"}, {"measurement": "IC50", "setting": "curve of first compound, second compound 9.49 µM", "result": "< 3.16", "unit": "nM"}, {"measurement": "IC50", "setting": "curve of first compound, second compound 30 µM", "result": "< 3.16", "unit": "nM"}, {"measurement": "viability, T/C", "setting": "second compound 0.3 µM, first compound 0.00316 µM", "result": 64.6, "unit": "%"}, {"measurement": "viability, T/C", "setting": "second compound 0.3 µM, first compound 0.01 µM", "result": 47, "unit": "%"}, {"measurement": "viability, T/C", "setting": "second compound 0.3 µM, first compound 0.0316 µM", "result": 23.3, "unit": "%"}, {"measurement": "viability, T/C", "setting": "second compound 0.3 µM, first compound 0.1 µM", "result": 8.89, "unit": "%"}, {"measurement": "viability, T/C", "setting": "second compound 0.3 µM, first compound 0.316 µM", "result": 2.93, "unit": "%"}, {"measurement": "viability, T/C", "setting": "second compound 0.3 µM, first compound 1 µM", "result": 2.83, "unit": "%"}, {"measurement": "viability, T/C", "setting": "second compound 0.949 µM, first compound 0.00316 µM", "result": 20.2, "unit": "%"}, {"measurement": "viability, T/C", "setting": "second compound 0.949 µM, first compound 0.01 µM", "result": 10.4, "unit": "%"}, {"measurement": "viability, T/C", "setting": "second compound 0.949 µM, first compound 0.0316 µM", "result": 8.85, "unit": "%"}, {"measurement": "viability, T/C", "setting": "second compound 0.949 µM, first compound 0.1 µM", "result": 4.57, "unit": "%"}, {"measurement": "viability, T/C", "setting": "second compound 0.949 µM, first compound 0.316 µM", "result": 1.95, "unit": "%"}, {"measurement": "viability, T/C", "setting": "second compound 0.949 µM, first compound 1 µM", "result": 1.97, "unit": "%"}, {"measurement": "viability, T/C", "setting": "second compound 3 µM, first compound 0.00316 µM", "result": 7.34, "unit": "%"}, {"measurement": "viability, T/C", "setting": "second compound 3 µM, first compound 0.01 µM", "result": 4.51, "unit": "%"}, {"measurement": "viability, T/C", "setting": "second compound 3 µM, first compound 0.0316 µM", "result": 3.03, "unit": "%"}, {"measurement": "viability, T/C", "setting": "second compound 3 µM, first compound 0.1 µM", "result": 2.24, "unit": "%"}, {"measurement": "viability, T/C", "setting": "second compound 3 µM, first compound 0.316 µM", "result": 1.67, "unit": "%"}, {"measurement": "viability, T/C", "setting": "second compound 3 µM, first compound 1 µM", "result": 1.29, "unit": "%"}, {"measurement": "viability, T/C", "setting": "second compound 9.49 µM, first compound 0.00316 µM", "result": 5.41, "unit": "%"}, {"measurement": "viability, T/C", "setting": "second compound 9.49 µM, first compound 0.01 µM", "result": 3.12, "unit": "%"}, {"measurement": "viability, T/C", "setting": "second compound 9.49 µM, first compound 0.0316 µM", "result": 2.03, "unit": "%"}, {"measurement": "viability, T/C", "setting": "second compound 9.49 µM, first compound 0.1 µM", "result": 2.04, "unit": "%"}, {"measurement": "viability, T/C", "setting": "second compound 9.49 µM, first compound 0.316 µM", "result": 1.13, "unit": "%"}, {"measurement": "viability, T/C", "setting": "second compound 9.49 µM, first compound 1 µM", "result": 1.28, "unit": "%"}, {"measurement": "viability, T/C", "setting": "second compound 30 µM, first compound 0.00316 µM", "result": 3.31, "unit": "%"}, {"measurement": "viability, T/C", "setting": "second compound 30 µM, first compound 0.01 µM", "result": 1.8, "unit": "%"}, {"measurement": "viability, T/C", "setting": "second compound 30 µM, first compound 0.0316 µM", "result": 1.37, "unit": "%"}, {"measurement": "viability, T/C", "setting": "second compound 30 µM, first compound 0.1 µM", "result": 1.05, "unit": "%"}, {"measurement": "viability, T/C", "setting": "second compound 30 µM, first compound 0.316 µM", "result": 0.7, "unit": "%"}, {"measurement": "viability, T/C", "setting": "second compound 30 µM, first compound 1 µM", "result": 0.47, "unit": "%"}]}
